Results published in US8415469B2, “Compounds and methods for kinase modulation, and indications therefor” (Plexxikon Inc., priority 2005, dated 2013).
Each block holds one molecule with its values, some of them ahead of it.

What was measured:
Type in all cases: biochemical
Gsk3β = Gsk3β (Homo sapiens, UniProt P49841); assay: AlphaScreen kinase assay, Gsk3β; conditions: read-out: IC50, activity toward kinase Gsk3β
Method in brief: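 Here, phosphorylation of a biotin-tagged peptide was sensed by proximity of streptavidin donor and antibody-bearing acceptor beads. Test compounds covered 8 concentrations by 1:3 serial dilution of 20 mM DMSO stocks.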

MAP4K4 = MAP4K4 (Homo sapiens, UniProt O95819); assay: AlphaScreen kinase assay, MAP4K4; conditions: read-out: IC50, activity toward kinase MAP4K4
Syk = Syk (Homo sapiens, UniProt P43405); assay: AlphaScreen kinase assay, Syk; conditions: read-out: IC50, activity toward kinase Syk
Description: AlphaScreen assay was used to screen additional kinases. The assay is similarly dependent on the phosphorylation of a peptide substrate. In this assay, an antibody that recognizes phosphorylated substrate is bound to an acceptor bead. The peptide substrate is attached to biotin, which binds to a donor head that contains streptavidin. Thus phosphorylated substrate is bound by antibody and streptavidin, bringing the donor and acceptor heads into close proximity when kinase is not inhibited. The donor produces singlet oxygen which results in emission from the acceptor when they are in close proximity. Conversely, when kinase is inhibited, the donor and acceptor beads are not associated and the emission from the acceptor is reduced.
AlphaScreen assays were done using compounds dissolved in DMSO to a concentration of 20 mM. The compounds were diluted accordingly to the desired final concentrations in each sample well, using 1:3 serial dilution for a total of 8 concentration points.

Flt3 = molecular target: T1, Flt3 (Homo sapiens, UniProt P36888); assay: Z'-Lyte FRET kinase assay (Invitrogen), Flt3; conditions: read-out: IC50, activity toward kinase Flt3
T1 construct: purchased Invitrogen (assay run by Invitrogen)
T1 sequence (P36888 27-993): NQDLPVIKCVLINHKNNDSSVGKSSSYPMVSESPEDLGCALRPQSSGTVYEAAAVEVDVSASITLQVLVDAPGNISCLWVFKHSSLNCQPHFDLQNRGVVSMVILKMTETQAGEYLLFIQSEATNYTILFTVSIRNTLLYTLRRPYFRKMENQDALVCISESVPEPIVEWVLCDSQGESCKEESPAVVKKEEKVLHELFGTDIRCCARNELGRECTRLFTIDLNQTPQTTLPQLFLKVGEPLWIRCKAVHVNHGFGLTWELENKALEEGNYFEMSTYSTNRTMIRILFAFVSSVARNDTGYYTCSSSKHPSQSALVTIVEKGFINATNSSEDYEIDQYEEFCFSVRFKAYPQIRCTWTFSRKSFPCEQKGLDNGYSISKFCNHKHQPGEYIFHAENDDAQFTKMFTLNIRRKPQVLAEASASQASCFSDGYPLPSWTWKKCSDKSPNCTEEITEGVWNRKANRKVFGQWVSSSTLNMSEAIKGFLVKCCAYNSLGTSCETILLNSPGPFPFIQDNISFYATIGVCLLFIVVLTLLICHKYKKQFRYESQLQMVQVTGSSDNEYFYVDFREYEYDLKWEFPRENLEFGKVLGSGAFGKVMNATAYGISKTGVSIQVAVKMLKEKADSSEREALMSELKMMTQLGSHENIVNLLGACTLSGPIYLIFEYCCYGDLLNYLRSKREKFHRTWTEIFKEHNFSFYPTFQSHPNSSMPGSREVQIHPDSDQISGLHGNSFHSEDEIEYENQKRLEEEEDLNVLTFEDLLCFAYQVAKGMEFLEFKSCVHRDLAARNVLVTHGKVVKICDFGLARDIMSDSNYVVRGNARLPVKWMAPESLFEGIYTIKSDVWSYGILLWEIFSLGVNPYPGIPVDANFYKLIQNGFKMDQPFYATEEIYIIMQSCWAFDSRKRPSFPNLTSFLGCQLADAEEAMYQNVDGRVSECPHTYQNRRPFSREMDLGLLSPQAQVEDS
Description: The effect of potential modulators of kinase activity can be measured in a variety of different assays known in the art. For example, direct radiometric, indirect FRET or AlphaScreen assays may be used to assess the level of phosphorylation of a substrate in the presence of test compounds in order to determine the inhibitory affect of the compound on the kinase. Invitrogen (Carlsbad, Calif.) uses a FRET based assay for Btk, EGFR, EphB2, Flt3, lrak4, Kdr, MAP2K1, MAPKAPK2, PDGFRB, PKC theta, Stk6 and Yes. For these assays, compounds of the invention were screened by Invitrogen using Z′-Lyte™ kinase assay.
Briefly, the Invitrogen kinase assay involves use of a specific peptide substrate optimized for each kinase, containing a fluorophore at each end that make up the FRET pair. The peptide sensitivity to proteolytic cleavage depends on phosphorylation of the peptide. Non-phosphorylated peptide is cleaved by a protease while peptide phosphorylated by the kinase is not cleaved. Cleavage of the peptide disrupts the FRET between the donor (coumarin) and acceptor (fluorescein) fluorophores, resulting in an increase in the ratio of donor emission to acceptor emission. The emission ratio of coumarin to fluorescein is used to assess the reaction progress. The extent of phosphorylation is determined from the emission ratio, which is low when the kinase is active (phosphorylated peptide is not cleaved, FRET pair connected) or higher for inhibited kinase (non-phosphorylated peptide is cleaved, FRET pair separated). Thus, the assay involves a kinase reaction in the presence of varying concentrations of a given compound, a development reaction with site specific protease, and detection of the fluorescent emission ratio of coumarin and fluorscein. […] Reaction conditions for each kinase are determined to provide optimal reaction times, incubation temperature, kinase and ATP concentrations. Test samples are made up in 1× kinase buffer (50 mM HEPES pH 7.5, 50 mM MgCl2, 5 mM EGTA, 0.05% BRIJ-35) and compound at desired concentration prepared in DMSO such that the final DMSO is 1%. […] Typically, assay plates are prepared to 10 μl final volume per sample, adding 2.5 μl of compound at 4× the desired concentration in 4% DMSO (serial dilution of compound provides concentration curve), 5 μl of the desired kinase mixed with Z′-LYTE™ peptide substrate (2× in 2× kinase buffer, final peptide at 2 μM), and 2.5 μl of 4×ATP solution. All kinase except for MAP2K1 were at 10 μM ATP in the kinase reaction, while MAP2K1 was at 100 μM. Samples are mixed and the kinase reaction is incubated 1 hour at room temperature, after which 5 μl of development solution is added and mixed. After incubation for another 1 hour at room temperature, 5 μl of stop reagent is added to each sample and mixed. The fluorescence signals are measured to determine the emission ratio.

IGF1R = IGF1R (Homo sapiens, UniProt P08069); assay: AlphaScreen kinase assay, IGF1R; conditions: read-out: IC50, activity toward kinase IGF1R
Sequence of IGF1R (P08069 31-1367): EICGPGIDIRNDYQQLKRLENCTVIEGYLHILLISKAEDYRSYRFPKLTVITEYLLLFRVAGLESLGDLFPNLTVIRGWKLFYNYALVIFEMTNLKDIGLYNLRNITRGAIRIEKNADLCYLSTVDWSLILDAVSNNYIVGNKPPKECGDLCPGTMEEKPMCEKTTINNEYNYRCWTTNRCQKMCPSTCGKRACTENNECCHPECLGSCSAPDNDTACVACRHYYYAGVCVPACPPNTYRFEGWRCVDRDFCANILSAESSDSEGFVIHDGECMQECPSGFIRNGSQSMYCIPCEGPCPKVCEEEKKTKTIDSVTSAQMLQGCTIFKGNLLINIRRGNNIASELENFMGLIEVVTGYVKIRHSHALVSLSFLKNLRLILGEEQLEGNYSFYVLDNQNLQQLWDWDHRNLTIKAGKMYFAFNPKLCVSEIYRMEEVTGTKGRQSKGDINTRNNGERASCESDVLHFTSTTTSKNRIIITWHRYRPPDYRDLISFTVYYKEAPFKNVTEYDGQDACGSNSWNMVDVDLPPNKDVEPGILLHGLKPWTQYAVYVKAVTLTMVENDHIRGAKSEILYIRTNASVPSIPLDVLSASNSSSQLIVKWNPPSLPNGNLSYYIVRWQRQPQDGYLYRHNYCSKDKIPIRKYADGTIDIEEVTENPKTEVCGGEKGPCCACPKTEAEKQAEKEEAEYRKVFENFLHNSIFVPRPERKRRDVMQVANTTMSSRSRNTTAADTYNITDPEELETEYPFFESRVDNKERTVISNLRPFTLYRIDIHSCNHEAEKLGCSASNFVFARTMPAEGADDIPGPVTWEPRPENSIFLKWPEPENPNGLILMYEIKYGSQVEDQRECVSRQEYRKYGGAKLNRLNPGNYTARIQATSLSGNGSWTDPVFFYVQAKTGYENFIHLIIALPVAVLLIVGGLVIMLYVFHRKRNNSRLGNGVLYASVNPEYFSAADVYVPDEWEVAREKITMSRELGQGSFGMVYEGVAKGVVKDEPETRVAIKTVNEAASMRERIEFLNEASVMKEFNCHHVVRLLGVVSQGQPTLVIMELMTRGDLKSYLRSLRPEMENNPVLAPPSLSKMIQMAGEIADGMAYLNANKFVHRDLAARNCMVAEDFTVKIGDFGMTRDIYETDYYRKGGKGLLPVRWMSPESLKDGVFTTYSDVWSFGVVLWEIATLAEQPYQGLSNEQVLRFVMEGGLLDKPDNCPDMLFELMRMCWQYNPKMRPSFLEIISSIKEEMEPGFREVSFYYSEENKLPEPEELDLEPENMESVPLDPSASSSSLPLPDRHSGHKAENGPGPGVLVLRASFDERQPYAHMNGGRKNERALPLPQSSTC

Sequence of Gsk3β (P49841 whole entry): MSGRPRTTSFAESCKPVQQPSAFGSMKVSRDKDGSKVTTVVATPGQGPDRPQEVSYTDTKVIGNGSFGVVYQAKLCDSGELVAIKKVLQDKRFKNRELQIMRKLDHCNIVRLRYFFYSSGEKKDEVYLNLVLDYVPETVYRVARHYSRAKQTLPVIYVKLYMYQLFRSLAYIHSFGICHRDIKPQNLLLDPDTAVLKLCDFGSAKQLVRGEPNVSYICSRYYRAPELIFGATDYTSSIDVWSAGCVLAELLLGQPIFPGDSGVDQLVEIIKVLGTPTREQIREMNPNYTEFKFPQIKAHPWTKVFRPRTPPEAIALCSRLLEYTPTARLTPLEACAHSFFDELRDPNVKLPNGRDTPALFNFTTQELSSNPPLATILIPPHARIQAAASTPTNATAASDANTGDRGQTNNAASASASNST
Sequence of MAP4K4 (O95819 whole entry): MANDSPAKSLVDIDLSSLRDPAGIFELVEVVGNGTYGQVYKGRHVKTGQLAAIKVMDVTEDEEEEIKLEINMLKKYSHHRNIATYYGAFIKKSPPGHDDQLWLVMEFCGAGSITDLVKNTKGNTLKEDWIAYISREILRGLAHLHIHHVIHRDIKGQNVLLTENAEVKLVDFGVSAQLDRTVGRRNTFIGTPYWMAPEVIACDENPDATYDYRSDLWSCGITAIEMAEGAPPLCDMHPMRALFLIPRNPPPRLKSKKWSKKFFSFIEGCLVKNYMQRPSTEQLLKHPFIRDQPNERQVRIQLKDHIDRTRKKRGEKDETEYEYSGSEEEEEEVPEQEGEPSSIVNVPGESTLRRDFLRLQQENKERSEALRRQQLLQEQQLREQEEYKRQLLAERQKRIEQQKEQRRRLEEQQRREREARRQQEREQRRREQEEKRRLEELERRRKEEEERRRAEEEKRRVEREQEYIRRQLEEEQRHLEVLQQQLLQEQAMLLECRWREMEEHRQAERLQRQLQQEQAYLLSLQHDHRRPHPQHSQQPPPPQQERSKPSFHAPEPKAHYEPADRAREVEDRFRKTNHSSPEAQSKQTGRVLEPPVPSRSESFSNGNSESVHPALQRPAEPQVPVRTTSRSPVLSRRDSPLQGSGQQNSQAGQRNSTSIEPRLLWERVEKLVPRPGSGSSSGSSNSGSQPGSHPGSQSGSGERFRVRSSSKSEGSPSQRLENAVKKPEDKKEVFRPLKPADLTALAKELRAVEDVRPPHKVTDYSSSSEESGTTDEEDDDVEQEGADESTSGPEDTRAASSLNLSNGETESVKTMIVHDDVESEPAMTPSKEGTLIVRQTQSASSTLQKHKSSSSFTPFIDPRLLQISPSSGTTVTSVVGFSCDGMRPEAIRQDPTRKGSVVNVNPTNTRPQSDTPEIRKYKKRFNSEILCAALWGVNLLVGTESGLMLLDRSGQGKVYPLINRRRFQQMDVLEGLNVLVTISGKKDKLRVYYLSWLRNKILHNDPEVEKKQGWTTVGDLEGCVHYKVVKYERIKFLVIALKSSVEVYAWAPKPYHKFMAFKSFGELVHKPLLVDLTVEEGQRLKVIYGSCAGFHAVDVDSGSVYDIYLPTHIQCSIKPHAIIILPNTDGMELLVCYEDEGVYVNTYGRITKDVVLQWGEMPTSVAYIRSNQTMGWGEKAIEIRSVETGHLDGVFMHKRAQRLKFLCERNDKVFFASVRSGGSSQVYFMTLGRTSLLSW

- IC50 (Syk): ≤ 10 µM
Structure (SMILES): O=C(c1cccc(O)c1)c1c[nH]c2ncc(-c3cccs3)cc12 [Compound P-0196]

- IC50 (Flt3): ≤ 10 µM
- IC50 (IGF1R): ≤ 10 µM
- IC50 (MAP4K4): ≤ 10 µM
Structure (SMILES): OCCOc1ccc(F)c(Cc2c[nH]c3ncc(-c4cccnc4)cc23)c1F [Compound P-1394, 2-[2,4-Difluoro-3-(5-pyridin-3-yl-1H-pyrrolo[2,3-b]pyridin-3-ylmethyl)-phenoxy]-ethanol]

- IC50 (Flt3): ≤ 10 µM
- IC50 (MAP4K4): ≤ 10 µM
Structure (SMILES): CCCS(=O)(=O)Nc1ccc(F)c(C(=O)c2c[nH]c3ncc(OC)cc23)c1F [Compound P-0806, Propane-1-sulfonic acid [2,4-difluoro-3-(5-methoxy-1H-pyrrolo[2,3-b]pyridine-3-carbonyl)-phenyl]-amide]

- IC50 (Flt3): ≤ 10 µM
Structure (SMILES): O=C(Nc1ccc(Cc2c[nH]c3ncccc23)cc1)Nc1cccc(C(F)(F)F)c1 [Compound P-0262, 1-[4-(1H-Pyrrolo[2,3-b]pyridin-3-ylmethyl)-phenyl]-3-(3-trifluoromethyl-phenyl)-urea]

- IC50 (Flt3): ≤ 10 µM
- IC50 (MAP4K4): ≤ 10 µM
Structure (SMILES): CCCC(=O)Nc1ccc(F)c(Cc2c[nH]c3ncc(-c4cccnc4)cc23)c1F [Compound P-1280]

- IC50 (Flt3): ≤ 10 µM
- IC50 (Gsk3β): ≤ 10 µM
- IC50 (MAP4K4): ≤ 10 µM
Structure (SMILES): COc1cc(OC)cc(C(=O)c2c[nH]c3ncc(-c4cccc(NS(C)(=O)=O)c4)cc23)c1 [Compound P-1426, N-{3-[3-(3,5-Dimethoxy-benzoyl)-1H-pyrrolo[2,3-b]pyridin-5-yl]-phenyl}-methanesulfonamide]

- IC50 (Syk): ≤ 10 µM
Structure (SMILES): O=C(c1cccc(O)c1F)c1c[nH]c2ncc(-c3cccs3)cc12 [Compound P-0521, (2-fluoro-3-hydroxy-phenyl)-(5-thiophen-2-yl-1H-pyrrolo[2,3-b]pyridin-3-yl)-methanone]

- IC50 (Flt3): ≤ 10 µM
- IC50 (MAP4K4): ≤ 10 µM
Structure (SMILES): CCCCNC(=O)Nc1ccc(F)c(C(=O)c2c[nH]c3ncc(-c4cccnc4)cc23)c1F [Compound P-1318, 1-Butyl-3-[2,4-difluoro-3-(5-pyridin-3-yl-1H-pyrrolo[2,3-b]pyridine-3-carbonyl)-phenyl]-urea]

- IC50 (Flt3): ≤ 10 µM
- IC50 (IGF1R): ≤ 10 µM
- IC50 (Gsk3β): ≤ 10 µM
- IC50 (Syk): ≤ 10 µM
- IC50 (MAP4K4): ≤ 10 µM
Structure (SMILES): COc1cccc(C(=O)c2c[nH]c3ncc(-c4cccc(NC(C)=O)c4)cc23)c1F [Compound P-1336, N-{3-[3-(2-Fluoro-3-methoxy-benzoyl)-1H-pyrrolo[2,3-b]pyridin-5-yl]-phenyl}-acetamide]

- IC50 (Flt3): ≤ 10 µM
Structure (SMILES): CCCS(=O)(=O)Nc1ccc(F)c(C(=O)c2c[nH]c3ncc(-c4ccccc4)cc23)c1F [Compound P-0636, Propane-1-sulfonic acid [2,4-difluoro-3-(5-phenyl-1H-pyrrolo[2,3-b]pyridine-3-carbonyl)-phenyl]-amide]

The remaining lines, values behind:

Structure (SMILES): CCCS(=O)(=O)Nc1ccc(F)c(C(=O)c2c[nH]c3ncccc23)c1F [Compound P-0007, Propane-1-sulfonic acid [2,4-difluoro-3-(1H-pyrrolo[2,3-b]pyridine-3-carbonyl)-phenyl]-amide]
- IC50 (Gsk3β): ≤ 10 µM
- IC50 (MAP4K4): ≤ 10 µM

Structure (SMILES): O=C(O)/C=C/c1cccc(-c2cnc3[nH]cc(C(=O)c4ccccc4F)c3c2)c1 [Compound P-0033]
- IC50 (Syk): ≤ 10 µM

Structure (SMILES): COc1ccc(C(=O)c2c[nH]c3ncc(-c4cccc(/C=C/C(=O)O)c4)cc23)c(Cl)c1 [Compound P-0015]
- IC50 (Gsk3β): ≤ 10 µM

Structure (SMILES): Oc1cccc(Cc2c[nH]c3ncc(-c4ccsc4)cc23)c1 [Compound P-0056]
- IC50 (Syk): ≤ 10 µM

Structure (SMILES): Cc1c(NS(C)(=O)=O)cccc1C(=O)c1c[nH]c2ncc(-c3ccccc3)cc12 [Compound P-0082, N-[2-Methyl-3-(5-phenyl-1H-pyrrolo[2,3-b]pyridine-3-carbonyl)-phenyl]-methanesulfonamide]
- IC50 (MAP4K4): ≤ 10 µM

Structure (SMILES): Fc1cc(F)cc(-c2ccnc3[nH]cc(Sc4ccccn4)c23)c1 [Compound P-0106]
- IC50 (Gsk3β): ≤ 10 µM

Structure (SMILES): Cc1ccccc1C(=O)c1c[nH]c2nccc(-c3ccc(C(N)=O)cc3)c12 [Compound P-0017]
- IC50 (Gsk3β): ≤ 10 µM

Structure (SMILES): O=C(O)/C=C/c1cccc(-c2cnc3[nH]cc(C(=O)c4cc(O)ccc4F)c3c2)c1 [Compound P-0010]
- IC50 (Syk): ≤ 10 µM

Structure (SMILES): Cc1ccccc1C(=O)c1c[nH]c2nccc(-c3cccc(NS(C)(=O)=O)c3)c12 [Compound P-0109]
- IC50 (Gsk3β): ≤ 10 µM

Structure (SMILES): Nc1cccc(-c2cnc3[nH]cc(C(=O)c4cccc(O)c4)c3c2)c1 [Compound P-0003]
- IC50 (IGF1R): ≤ 10 µM

Structure (SMILES): CCCS(=O)(=O)Nc1ccc(F)c(C(=O)c2c[nH]c3ncc(-c4cccnc4)cc23)c1F [Compound P-0088, Propane-1-sulfonic acid [2,4-difluoro-3-(5-pyridin-3-yl-1H-pyrrolo[2,3-b]pyridine-3-carbonyl)-phenyl]-amide]
- IC50 (Flt3): ≤ 10 µM
- IC50 (MAP4K4): ≤ 10 µM

Structure (SMILES): Nc1cccc(-c2cnc3[nH]cc(C(=O)c4cc(O)ccc4F)c3c2)c1 [Compound P-0002]
- IC50 (IGF1R): ≤ 10 µM
- IC50 (Syk): ≤ 10 µM

Structure (SMILES): Nc1cccc(-c2cnc3[nH]cc(C(=O)c4cccc(O)c4F)c3c2)c1 [Compound P-0004, [5-(3-amino-phenyl)-1H-pyrrolo[2,3-b]pyridin-3-yl]-(2-fluoro-3-hydroxy-phenyl)methanone]
- IC50 (IGF1R): ≤ 10 µM

Structure (SMILES): Oc1ccc(F)c(C(O)c2c[nH]c3ncc(-c4cccnc4)cc23)c1F (centres unmarked) [Compound P-0009, 2,4-difluoro-3-[hydroxy-(5-pyridin-3-yl-1H-pyrrolo[2,3-b]pyridin-3-yl)-methyl]-phenol]
- IC50 (IGF1R): ≤ 10 µM
